Data set [1] has as its system PC-3. Put plainly: Antiproliferative activity against human PC3 cells after 72 hrs by MTT assay. It counts as functional, cell-based. To be noted: PC-3, 72 h. A general note: Formazan colour is commonly taken as a measure of viable cells.
Data set [2] has as its target Tyrosine-protein kinase JAK2 (Homo sapiens, UniProt O60674). Put plainly: Inhibition of human JAK2 using poly(Glu:Tyr)(4:1) as substrate preincubated for 20 mins followed by [gamma33P]ATP addition measured after 120 mins by ion exchange filter paper method.
Data set [3] can be described thus: Selectivity index, ratio of CC50 for human AC10 cells to IC50 for human PC3 cells. Particulars: AC10 cells (CC50) and PC3 cells (IC50). The class given is toxicity.
The test system of data set [4] is MCF7. Briefly: Induction of apoptosis in human MCF7 cells assessed as early apoptotic cells at 0.86 uM after 72 hrs by Annexin V-FITC/propidium iodide staining based flow cytometry (reference value: 1.19%). It counts as functional.
Data set [5] deals with HCT-116. Briefly: Induction of apoptosis in human HCT116 cells assessed as live cells at 1.14 uM after 72 hrs by Annexin V-FITC/propidium iodide staining based flow cytometry (reference value: 95.7%). It counts as functional. (In general: Flow cytometry measures light scatter and fluorescence of single cells or particles in a stream.)
The species entered for data set [6] is Homo sapiens. Briefly: Selectivity ratio of IC50 for human JAK1 to IC50 for human JAK2.
Data set [7] can be described thus: Selectivity index, ratio of CC50 for mouse TAMH cells to IC50 for human HCT116 cells. The class given is toxicity. Particulars: TAMH cells (CC50) and HCT116 cells (IC50).
In data set [8] the test system is HCT-116. Briefly: Induction of apoptosis in human HCT116 cells assessed as necrotic cells at 1.14 uM after 72 hrs by Annexin V-FITC/propidium iodide staining based flow cytometry (reference value: 1.54%). The class given is functional.
The subject of data set [9] is MCF7. Put plainly: Induction of apoptosis in human MCF7 cells assessed as necrotic cells at 0.86 uM after 72 hrs by Annexin V-FITC/propidium iodide staining based flow cytometry (reference value: 2.17%). It counts as functional.
A short description of data set [10]: Antiproliferative activity against mouse TAMH cells after 72 hrs by MTT assay. The class given is cell-based.
For data set [11], the system named is MDA-MB-231. Briefly: Induction of apoptosis in human MDA-MB-231 cells assessed as late apoptotic cells at 0.9 uM after 72 hrs by Annexin V-FITC/propidium iodide staining based flow cytometry (reference value: 2.12%). The class given is functional.
The test system of data set [12] is MCF7. Briefly: Antiproliferative activity against human MCF7 cells after 72 hrs by MTT assay. The class given is functional, cell-based. To be noted: MCF7, 72 h.
In data set [13] the test system is HCT-116. Put plainly: Induction of apoptosis in human HCT116 cells assessed as early apoptotic cells at 1.14 uM after 72 hrs by Annexin V-FITC/propidium iodide staining based flow cytometry (reference value: 1.31%). It counts as functional.
In data set [14] the test system is PC-3. Put plainly: Induction of apoptosis in human PC3 cells assessed as necrotic cells at 0.71 uM after 72 hrs by Annexin V-FITC/propidium iodide staining based flow cytometry (reference value: 0.66%). It counts as functional.
Data set [15] deals with HCT-116. Briefly: Induction of apoptosis in human HCT116 cells assessed as late apoptotic cells at 1.14 uM after 72 hrs by Annexin V-FITC/propidium iodide staining based flow cytometry (reference value: 1.45%). The class given is functional.
Data set [16] relates to PC-3. Briefly: Induction of apoptosis in human PC3 cells assessed as early apoptotic cells at 0.71 uM after 72 hrs by Annexin V-FITC/propidium iodide staining based flow cytometry (reference value: […]%). It counts as functional.
Data set [17] deals with MDA-MB-231. Put plainly: Antiproliferative activity against human MDA-MB-231 cells after 72 hrs by MTT assay. The class given is functional, cell-based. To be noted: MDA-MB-231, 72 h.
Data set [18] deals with MDA-MB-231. Put plainly: Induction of apoptosis in human MDA-MB-231 cells assessed as necrotic cells at 0.9 uM after 72 hrs by Annexin V-FITC/propidium iodide staining based flow cytometry (reference value: 5.45%). It counts as functional.
For data set [19], the system named is MCF7. Put plainly: Induction of apoptosis in human MCF7 cells assessed as late apoptotic cells at 0.86 uM after 72 hrs by Annexin V-FITC/propidium iodide staining based flow cytometry (reference value: 1.59%). The class given is functional.
The species entered for data set [20] is Homo sapiens. Briefly: Selectivity ratio of IC50 for human TYK2 to IC50 for human JAK2.
The subject of data set [21] is HCT-116. Briefly: Antiproliferative activity against human HCT116 cells after 72 hrs by MTT assay. It counts as functional, cell-based. To be noted: HCT-116, 72 h.
The target of data set [22] is T1, Protein deacetylase HDAC6 (Homo sapiens, UniProt Q9UBN7).
T1 sequence (Q9UBN7 whole entry): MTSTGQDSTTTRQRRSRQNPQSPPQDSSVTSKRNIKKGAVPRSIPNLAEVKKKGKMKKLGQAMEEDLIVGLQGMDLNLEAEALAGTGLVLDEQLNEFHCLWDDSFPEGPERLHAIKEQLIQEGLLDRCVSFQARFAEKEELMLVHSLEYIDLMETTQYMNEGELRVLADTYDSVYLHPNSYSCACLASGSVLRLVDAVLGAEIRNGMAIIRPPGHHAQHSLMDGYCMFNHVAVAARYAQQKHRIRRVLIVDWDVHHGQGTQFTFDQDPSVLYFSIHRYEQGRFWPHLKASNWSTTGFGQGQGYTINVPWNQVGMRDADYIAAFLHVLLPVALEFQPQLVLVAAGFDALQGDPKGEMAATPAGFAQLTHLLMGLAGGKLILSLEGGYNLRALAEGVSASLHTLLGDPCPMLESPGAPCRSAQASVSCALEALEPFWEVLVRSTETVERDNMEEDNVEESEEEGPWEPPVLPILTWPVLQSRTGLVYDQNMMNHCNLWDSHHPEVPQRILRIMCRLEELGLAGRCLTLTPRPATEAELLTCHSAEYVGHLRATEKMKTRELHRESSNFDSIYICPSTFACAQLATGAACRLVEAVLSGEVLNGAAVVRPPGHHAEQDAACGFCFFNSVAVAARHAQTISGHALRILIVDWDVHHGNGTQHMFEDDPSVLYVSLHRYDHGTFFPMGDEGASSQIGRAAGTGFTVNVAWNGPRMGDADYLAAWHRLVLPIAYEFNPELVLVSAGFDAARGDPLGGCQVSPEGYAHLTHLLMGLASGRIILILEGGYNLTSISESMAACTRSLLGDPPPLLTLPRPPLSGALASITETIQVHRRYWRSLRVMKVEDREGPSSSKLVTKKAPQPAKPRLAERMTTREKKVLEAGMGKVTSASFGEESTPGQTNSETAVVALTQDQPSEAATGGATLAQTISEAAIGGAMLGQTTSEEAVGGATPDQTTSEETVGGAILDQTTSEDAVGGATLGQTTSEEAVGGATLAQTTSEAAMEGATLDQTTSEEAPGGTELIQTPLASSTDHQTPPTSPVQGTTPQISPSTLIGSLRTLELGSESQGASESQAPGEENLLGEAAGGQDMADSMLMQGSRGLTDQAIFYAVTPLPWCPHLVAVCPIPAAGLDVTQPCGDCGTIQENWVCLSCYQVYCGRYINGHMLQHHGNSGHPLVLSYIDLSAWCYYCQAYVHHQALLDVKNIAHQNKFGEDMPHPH
Briefly: Inhibition of HDAC6 (unknown origin) using Arg-His-Lys-Lys(Ac) as substrate preincubated with enzyme followed by substrate addition for 2 hrs and measured for 1.5 hrs at 15 mins time interval by fluorescence assay.

The species entered for data set [23] is Homo sapiens. Briefly: Selectivity ratio of IC50 for human JAK3 to IC50 for human JAK2.
The nature of data set [24]: Selectivity index, ratio of CC50 for mouse TAMH cells to IC50 for human MDA-MB-231 cells. The class given is toxicity. To be noted: TAMH cells (CC50) and MDA-MB-231 cells (IC50).

Tyrosine-protein kinase JAK2, sequence (O60674 whole entry): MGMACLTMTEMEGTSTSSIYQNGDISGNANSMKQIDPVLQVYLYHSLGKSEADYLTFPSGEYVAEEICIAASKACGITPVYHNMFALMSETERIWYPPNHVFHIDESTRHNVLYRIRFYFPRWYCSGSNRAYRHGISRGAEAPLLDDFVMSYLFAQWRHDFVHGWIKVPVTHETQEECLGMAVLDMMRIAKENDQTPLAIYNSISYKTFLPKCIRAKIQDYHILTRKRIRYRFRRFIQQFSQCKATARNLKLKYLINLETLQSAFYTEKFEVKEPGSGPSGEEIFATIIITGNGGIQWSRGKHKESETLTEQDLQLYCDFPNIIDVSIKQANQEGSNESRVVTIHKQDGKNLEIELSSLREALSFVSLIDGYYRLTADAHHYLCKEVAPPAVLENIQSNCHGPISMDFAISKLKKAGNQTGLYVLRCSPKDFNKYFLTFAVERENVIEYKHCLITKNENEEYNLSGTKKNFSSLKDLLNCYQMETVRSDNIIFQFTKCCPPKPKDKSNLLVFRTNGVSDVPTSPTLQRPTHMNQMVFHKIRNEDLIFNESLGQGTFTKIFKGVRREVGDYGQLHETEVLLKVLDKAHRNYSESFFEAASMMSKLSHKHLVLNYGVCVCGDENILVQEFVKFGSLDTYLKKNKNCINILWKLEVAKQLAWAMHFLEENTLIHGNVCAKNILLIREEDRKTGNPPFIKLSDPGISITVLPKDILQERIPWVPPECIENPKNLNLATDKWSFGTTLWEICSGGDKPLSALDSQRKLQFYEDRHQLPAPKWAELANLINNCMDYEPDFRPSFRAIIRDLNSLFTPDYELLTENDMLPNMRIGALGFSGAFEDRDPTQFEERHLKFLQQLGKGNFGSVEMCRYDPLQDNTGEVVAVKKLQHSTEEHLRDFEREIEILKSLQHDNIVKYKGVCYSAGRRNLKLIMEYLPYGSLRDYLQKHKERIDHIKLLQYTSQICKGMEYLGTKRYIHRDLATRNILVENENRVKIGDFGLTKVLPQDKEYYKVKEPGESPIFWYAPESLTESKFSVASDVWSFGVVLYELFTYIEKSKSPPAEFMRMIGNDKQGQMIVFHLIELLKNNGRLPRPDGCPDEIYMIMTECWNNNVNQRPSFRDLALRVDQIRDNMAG

As for `O=C(CCCCCCC(=O)Nc1ccc(-c2ccnc(Nc3ccc(N4CCOCC4)cc3)n2)cc1)NO`, the IC50 was determined as 640 nM in [1]; 3.1 nM in data set [2]; 700 nM in [12]; 990 nM in data set [17]; 1050 nM in data set [21]; 1.2 nM in data set [22]. For the same molecule, the results for the selectivity ratio in data set [3], in data set [7] and in [24] were 6.22, 6.09 and 6.45, respectively. Further, the Activity is 29.26% in [4]; 52.4% in data set [5]; 4.29% in data set [8]; 7.97% in data set [9]; 39.98% in [11]; 31.19% in data set [13]. Further, the Activity in data set [14] was 1.37%; in data set [15] it was 12.12%; in [16] it was 45.69%; in data set [18], 5.87%; in data set [19], 24.84%. Further, the Ratio IC50 in data set [6] came out at 16.8; in [20], 25.6; in data set [23] it was 25.8. The molecule also showed a CC50 at 72 h in [10] of 6390 nM.

Usually IC50 stands for the concentration that inhibits the measured activity by half. Higher therefore signals a need for much substance. Usually CC50 stands for the concentration that lowers cell viability or growth by half.

The record behind these values is ChEMBL document CHEMBL4265943, “Design and synthesis of potent dual inhibitors of JAK2 and HDAC based on fusing the pharmacophores of XL019 and vorinostat” (Eur J Med Chem, 2018).
